From ChEMBL document CHEMBL4507260 (2021)

Experiments:
Conditions in all cases: Compound concentration 1000.0 nM
[1] = target: Receptor tyrosine-protein kinase erbB-4 (Homo sapiens) (UniProt Q15303)
[2] = system: Hepatocyte growth factor receptor (Homo sapiens), P08581 [Y1235D]
[3] = target: Tyrosine-protein kinase receptor UFO (Homo sapiens) (UniProt P30530)
[4] = target: Serine/threonine-protein kinase VRK2 (Homo sapiens) (UniProt Q86Y07)
[5] = target: Phosphatidylinositol 5-phosphate 4-kinase type-2 beta (Homo sapiens) (UniProt P78356)
[6] = target: Cyclin-dependent kinase 17 (Homo sapiens) (UniProt Q00537)
[7] = system: Receptor-type tyrosine-protein kinase FLT3 (Homo sapiens), P36888 [D835V]
[8] = target: Mitogen-activated protein kinase kinase kinase 11 (Homo sapiens) (UniProt Q16584)
[9] = target: MAP kinase-activated protein kinase 2 (Homo sapiens) (UniProt P49137)
[10] = target: Rho-associated protein kinase 1 (Homo sapiens) (UniProt Q13464)
[11] = target: Serine/threonine-protein kinase B-raf (Homo sapiens) (UniProt P15056)
[12] = target: Dual specificity protein kinase CLK3 (Homo sapiens) (UniProt P49761)
[13] = system: Receptor-type tyrosine-protein kinase FLT3 (Homo sapiens), P36888 [D835Y]
[14] = target: Ephrin type-B receptor 6 (Homo sapiens) (UniProt O15197)
Ephrin type-B receptor 6 (Homo sapiens), sequence (O15197 whole entry, the tested form may be a part): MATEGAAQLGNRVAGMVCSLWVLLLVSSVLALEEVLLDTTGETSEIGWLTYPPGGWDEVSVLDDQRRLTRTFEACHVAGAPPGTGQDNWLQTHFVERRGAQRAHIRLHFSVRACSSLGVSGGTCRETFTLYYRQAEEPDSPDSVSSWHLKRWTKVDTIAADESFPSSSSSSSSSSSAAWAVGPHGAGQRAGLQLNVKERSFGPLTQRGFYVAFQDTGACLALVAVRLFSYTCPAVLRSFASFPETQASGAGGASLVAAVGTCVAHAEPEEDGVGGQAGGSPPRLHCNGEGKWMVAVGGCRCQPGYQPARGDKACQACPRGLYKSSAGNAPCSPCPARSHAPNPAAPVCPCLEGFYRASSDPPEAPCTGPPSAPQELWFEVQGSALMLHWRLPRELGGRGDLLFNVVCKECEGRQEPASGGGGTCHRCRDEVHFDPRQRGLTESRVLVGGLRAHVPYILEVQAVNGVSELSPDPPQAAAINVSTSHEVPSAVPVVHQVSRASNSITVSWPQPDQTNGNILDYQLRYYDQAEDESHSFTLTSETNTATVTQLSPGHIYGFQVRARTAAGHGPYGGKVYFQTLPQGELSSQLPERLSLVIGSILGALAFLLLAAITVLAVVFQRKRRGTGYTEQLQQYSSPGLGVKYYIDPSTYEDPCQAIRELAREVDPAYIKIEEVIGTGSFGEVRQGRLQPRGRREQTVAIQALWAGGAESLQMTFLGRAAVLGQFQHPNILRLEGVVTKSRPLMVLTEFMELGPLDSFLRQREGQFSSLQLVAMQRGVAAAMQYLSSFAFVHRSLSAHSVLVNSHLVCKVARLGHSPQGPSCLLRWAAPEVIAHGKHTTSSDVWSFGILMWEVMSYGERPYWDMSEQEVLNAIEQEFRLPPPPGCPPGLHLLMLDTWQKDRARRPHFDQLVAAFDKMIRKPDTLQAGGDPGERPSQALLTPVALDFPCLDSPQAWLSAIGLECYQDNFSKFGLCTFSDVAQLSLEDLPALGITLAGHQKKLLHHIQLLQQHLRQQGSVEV

[15] = target: LIM domain kinase 1 (Homo sapiens) (UniProt P53667)
[16] = target: Serine/threonine-protein kinase Chk1 (Homo sapiens) (UniProt O14757)
[17] = target: Interferon-induced, double-stranded RNA-activated protein kinase (Homo sapiens) (UniProt P19525)
[18] = system: Mast/stem cell growth factor receptor Kit (Homo sapiens), P10721 [V559D,V654A]
[19] = target: Receptor-interacting serine/threonine-protein kinase 2 (Homo sapiens) (UniProt O43353)
[20] = target: Serine/threonine-protein kinase haspin (Homo sapiens) (UniProt Q8TF76)
[21] = target: Proto-oncogene tyrosine-protein kinase ROS (Homo sapiens) (UniProt P08922)
[22] = target: Activin receptor type-1B (Homo sapiens) (UniProt P36896)
Activin receptor type-1B (Homo sapiens), sequence (P36896 whole entry): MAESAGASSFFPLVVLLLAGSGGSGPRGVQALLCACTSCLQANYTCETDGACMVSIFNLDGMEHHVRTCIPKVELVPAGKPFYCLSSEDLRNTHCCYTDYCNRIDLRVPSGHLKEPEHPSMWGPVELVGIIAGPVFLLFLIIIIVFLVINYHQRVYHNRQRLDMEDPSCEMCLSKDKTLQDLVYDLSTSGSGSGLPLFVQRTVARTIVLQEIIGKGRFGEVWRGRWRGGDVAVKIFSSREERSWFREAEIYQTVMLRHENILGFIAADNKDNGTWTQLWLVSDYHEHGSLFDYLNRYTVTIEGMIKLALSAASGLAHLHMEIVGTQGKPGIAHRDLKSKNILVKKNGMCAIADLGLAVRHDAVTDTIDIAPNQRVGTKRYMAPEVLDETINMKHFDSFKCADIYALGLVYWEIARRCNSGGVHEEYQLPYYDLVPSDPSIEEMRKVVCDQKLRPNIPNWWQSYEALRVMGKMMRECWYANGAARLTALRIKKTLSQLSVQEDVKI

[23] = target: Platelet-derived growth factor receptor alpha (Homo sapiens) (UniProt P16234)
[24] = target: Dual serine/threonine and tyrosine protein kinase (Homo sapiens) (UniProt Q6XUX3)
[25] = target: Ribosomal protein S6 kinase alpha-5 (Homo sapiens) (UniProt O75582)
[26] = target: MAP/microtubule affinity-regulating kinase 4 (Homo sapiens) (UniProt Q96L34)
MAP/microtubule affinity-regulating kinase 4 (Homo sapiens), sequence (Q96L34 whole entry): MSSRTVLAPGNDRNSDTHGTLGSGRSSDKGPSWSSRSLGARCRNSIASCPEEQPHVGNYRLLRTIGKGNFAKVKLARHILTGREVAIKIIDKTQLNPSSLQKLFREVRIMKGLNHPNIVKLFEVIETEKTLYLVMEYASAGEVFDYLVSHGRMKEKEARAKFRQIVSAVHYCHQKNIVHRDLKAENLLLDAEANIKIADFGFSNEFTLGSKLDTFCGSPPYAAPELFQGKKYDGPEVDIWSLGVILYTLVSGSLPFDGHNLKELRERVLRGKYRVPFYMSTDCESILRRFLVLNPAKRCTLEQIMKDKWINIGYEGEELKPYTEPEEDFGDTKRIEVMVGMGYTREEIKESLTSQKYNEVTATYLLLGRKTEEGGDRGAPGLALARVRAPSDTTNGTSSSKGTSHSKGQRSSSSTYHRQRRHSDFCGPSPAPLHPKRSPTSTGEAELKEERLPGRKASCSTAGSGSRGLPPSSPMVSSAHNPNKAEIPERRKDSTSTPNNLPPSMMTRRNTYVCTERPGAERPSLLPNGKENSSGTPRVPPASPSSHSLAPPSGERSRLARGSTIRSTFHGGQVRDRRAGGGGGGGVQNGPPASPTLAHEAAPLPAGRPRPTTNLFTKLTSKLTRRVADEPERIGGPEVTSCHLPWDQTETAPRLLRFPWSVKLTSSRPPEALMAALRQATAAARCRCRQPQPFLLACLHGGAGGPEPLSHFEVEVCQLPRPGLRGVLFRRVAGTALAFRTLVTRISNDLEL

[27] = target: Receptor tyrosine-protein kinase erbB-2 (Homo sapiens) (UniProt P04626)
[28] = target: Serine/threonine-protein kinase PAK 4 (Homo sapiens) (UniProt O96013)
[29] = target: Non-receptor tyrosine-protein kinase TYK2 (Homo sapiens) (UniProt P29597)
[30] = target: Cyclin-dependent kinase 9 (Homo sapiens) (UniProt P50750)
Cyclin-dependent kinase 9 (Homo sapiens), sequence (P50750 whole entry): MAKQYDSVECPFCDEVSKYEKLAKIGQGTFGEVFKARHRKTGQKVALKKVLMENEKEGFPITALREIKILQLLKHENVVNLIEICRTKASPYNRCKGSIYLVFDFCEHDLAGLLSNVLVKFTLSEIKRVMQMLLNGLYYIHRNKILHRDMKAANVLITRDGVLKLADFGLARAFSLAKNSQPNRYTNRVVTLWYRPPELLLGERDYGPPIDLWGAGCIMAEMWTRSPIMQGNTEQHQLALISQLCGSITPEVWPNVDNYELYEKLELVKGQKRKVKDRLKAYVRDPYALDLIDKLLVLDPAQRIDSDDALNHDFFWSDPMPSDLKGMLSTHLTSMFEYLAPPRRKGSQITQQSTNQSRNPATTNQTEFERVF

[31] = target: NUAK family SNF1-like kinase 1 (Homo sapiens) (UniProt O60285)
[32] = target: Serine/threonine-protein kinase N2 (Homo sapiens) (UniProt Q16513)
[33] = target: Serine/threonine-protein kinase PAK 5 (Homo sapiens) (UniProt Q9P286)
[34] = target: Mitogen-activated protein kinase 10 (Homo sapiens) (UniProt P53779)
[35] = system: Tyrosine-protein kinase ABL1 (Homo sapiens), P00519 [M351T]
[36] = target: Tyrosine-protein kinase Fer (Homo sapiens) (UniProt P16591)
Tyrosine-protein kinase Fer (Homo sapiens), sequence (P16591 whole entry, looked up): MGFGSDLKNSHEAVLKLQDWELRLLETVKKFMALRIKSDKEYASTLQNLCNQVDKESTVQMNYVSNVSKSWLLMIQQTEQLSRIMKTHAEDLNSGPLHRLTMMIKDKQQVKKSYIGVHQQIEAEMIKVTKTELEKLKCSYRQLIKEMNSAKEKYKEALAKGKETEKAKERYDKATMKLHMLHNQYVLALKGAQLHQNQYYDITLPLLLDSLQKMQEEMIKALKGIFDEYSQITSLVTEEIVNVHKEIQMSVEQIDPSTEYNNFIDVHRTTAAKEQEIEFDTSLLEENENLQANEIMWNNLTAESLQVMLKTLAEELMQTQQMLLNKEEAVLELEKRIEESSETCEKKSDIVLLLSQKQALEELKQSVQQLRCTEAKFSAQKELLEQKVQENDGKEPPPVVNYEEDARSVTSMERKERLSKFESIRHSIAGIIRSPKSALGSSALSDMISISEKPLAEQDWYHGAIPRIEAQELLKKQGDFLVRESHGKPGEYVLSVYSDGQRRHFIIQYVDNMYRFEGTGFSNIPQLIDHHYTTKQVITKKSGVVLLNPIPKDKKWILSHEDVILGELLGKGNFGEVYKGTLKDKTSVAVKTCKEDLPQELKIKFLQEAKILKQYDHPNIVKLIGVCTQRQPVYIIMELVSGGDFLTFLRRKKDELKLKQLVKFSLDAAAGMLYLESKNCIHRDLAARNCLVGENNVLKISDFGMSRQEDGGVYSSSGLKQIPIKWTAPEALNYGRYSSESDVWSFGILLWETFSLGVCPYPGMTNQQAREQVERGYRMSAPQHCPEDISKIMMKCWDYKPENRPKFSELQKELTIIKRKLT

[37] = target: Uncharacterized serine/threonine-protein kinase SBK3 (Homo sapiens) (UniProt P0C264)
[38] = system: Proto-oncogene tyrosine-protein kinase receptor Ret (Homo sapiens), P07949 [M918T]
[39] = target: Macrophage colony-stimulating factor 1 receptor (Homo sapiens) (UniProt P07333)
[40] = target: Rho-associated protein kinase 2 (Homo sapiens) (UniProt O75116)
[41] = target: Cyclin-dependent kinase 11B (Homo sapiens) (UniProt P21127)
[42] = target: cAMP-dependent protein kinase catalytic subunit beta (Homo sapiens) (UniProt P22694)
[43] = target: ALK tyrosine kinase receptor (Homo sapiens) (UniProt Q9UM73)
[44] = target: Myosin-IIIb (Homo sapiens) (UniProt Q8WXR4)
Myosin-IIIb (Homo sapiens), sequence (Q8WXR4 whole entry): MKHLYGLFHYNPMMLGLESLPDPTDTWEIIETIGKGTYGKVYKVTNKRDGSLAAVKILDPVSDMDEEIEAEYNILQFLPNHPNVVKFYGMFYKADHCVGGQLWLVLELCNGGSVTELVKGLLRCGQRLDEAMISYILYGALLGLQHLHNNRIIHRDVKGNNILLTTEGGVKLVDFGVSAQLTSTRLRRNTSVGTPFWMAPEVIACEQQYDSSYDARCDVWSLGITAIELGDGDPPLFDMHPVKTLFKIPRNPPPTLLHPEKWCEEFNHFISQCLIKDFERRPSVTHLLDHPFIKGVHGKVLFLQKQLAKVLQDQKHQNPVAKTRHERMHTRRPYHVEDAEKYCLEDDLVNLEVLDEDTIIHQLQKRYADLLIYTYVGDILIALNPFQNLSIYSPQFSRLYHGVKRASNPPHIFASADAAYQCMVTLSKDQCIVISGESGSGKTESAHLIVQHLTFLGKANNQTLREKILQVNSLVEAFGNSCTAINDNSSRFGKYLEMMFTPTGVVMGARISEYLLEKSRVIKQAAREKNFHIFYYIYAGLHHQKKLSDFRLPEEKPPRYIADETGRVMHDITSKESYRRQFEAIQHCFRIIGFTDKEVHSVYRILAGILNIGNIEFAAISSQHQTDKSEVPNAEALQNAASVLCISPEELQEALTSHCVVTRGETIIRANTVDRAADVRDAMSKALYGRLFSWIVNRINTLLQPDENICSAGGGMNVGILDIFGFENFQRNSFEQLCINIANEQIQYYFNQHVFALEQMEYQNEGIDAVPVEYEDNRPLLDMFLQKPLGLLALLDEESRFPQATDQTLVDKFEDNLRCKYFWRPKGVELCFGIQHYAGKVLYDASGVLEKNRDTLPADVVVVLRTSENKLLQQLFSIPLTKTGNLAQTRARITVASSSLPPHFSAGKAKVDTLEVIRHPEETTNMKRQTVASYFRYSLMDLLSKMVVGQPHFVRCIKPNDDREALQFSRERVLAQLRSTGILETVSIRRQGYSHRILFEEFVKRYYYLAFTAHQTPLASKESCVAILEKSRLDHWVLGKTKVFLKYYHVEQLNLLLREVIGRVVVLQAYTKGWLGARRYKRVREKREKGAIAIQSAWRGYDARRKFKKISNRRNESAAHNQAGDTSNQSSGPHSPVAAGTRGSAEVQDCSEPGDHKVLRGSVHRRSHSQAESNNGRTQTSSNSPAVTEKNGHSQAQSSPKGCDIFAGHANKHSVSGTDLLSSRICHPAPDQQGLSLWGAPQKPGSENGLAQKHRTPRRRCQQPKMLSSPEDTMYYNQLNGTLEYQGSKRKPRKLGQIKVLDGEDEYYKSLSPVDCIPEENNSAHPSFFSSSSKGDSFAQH

[45] = target: Serine/threonine-protein kinase NLK (Homo sapiens) (UniProt Q9UBE8)

Measured: residual activity

c1ccc(N2CCN(Cc3nc4ccccc4[nH]3)CC2)nc1 [ABT-724]
inactive: [1] 95% | [2] 100% | [3] 100% | [4] 100% | [5] 100% | [6] 100% | [7] 88% | [8] 100% | [9] 100% | [10] 100% | [11] 100% | [12] 100% | [13] 100% | [14] 75% | [15] 100% | [16] 100% | [17] 100% | [18] 100% | [19] 100% | [20] 100% | [21] 100% | [22] 85% | [23] 100% | [24] 100% | [25] 100% | [26] 100% | [27] 78% | [28] 93% | [29] 100% | [30] 100% | [31] 89% | [32] 100% | [33] 100% | [34] 100% | [35] 100% | [36] 100% | [37] 100% | [38] 100% | [39] 98% | [40] 100% | [41] 100% | [42] 93% | [43] 91% | [44] 95% | [45] 100%

CSc1cccnc1N1CCN(Cc2nc3ccccc3[nH]2)CC1 [A-769]
inactive: [1] 83% | [2] 89% | [3] 100% | [4] 75% | [5] 100% | [6] 100% | [7] 84% | [8] 100% | [9] 80% | [10] 93% | [11] 89% | [12] 85% | [13] 100% | [14] 89% | [15] 100% | [16] 94% | [17] 100% | [18] 100% | [19] 100% | [20] 100% | [21] 100% | [22] 100% | [23] 89% | [24] 76% | [25] 100% | [26] 100% | [27] 88% | [28] 100% | [29] 100% | [30] 97% | [31] 100% | [32] 62% | [33] 97% | [34] 66% | [35] 94% | [36] 100% | [37] 100% | [38] 99% | [39] 100% | [40] 74% | [41] 100% | [42] 100% | [43] 70% | [44] 100% | [45] 100%
